Converted amounts (≈) assume the structure as drawn.
What was measured:
[1] = Assessment of solubility: HT solubility in pION buffer, UV spectrophotometry; conditions: 16-19 h incubation, 1.0% DMSO; for solubility: pION system solution buffer, kinetic from dmso stock
[2] = target: T1, Recombinant human soluble guanylate cyclase (sGC), alpha 1 / beta 1 subunits, heme-free (Homo sapiens, UniProt Q02108+Q02153); test: Molecular assay: cGMP formation by heme-free recombinant sGC (CisBio cGMP detection kit); format: biochemical; conditions: 300 pM heme-free sGC, 37° C., 60 min, cGMP readout; read-out: EC50 nM, Activity of Compounds in Molecular Assay
T1 construct: histidine tag (C); made in house; host or cells: Sf9 insect cells (baculovirus coinfection)
T1 sequence (Q02108 1-690 partner): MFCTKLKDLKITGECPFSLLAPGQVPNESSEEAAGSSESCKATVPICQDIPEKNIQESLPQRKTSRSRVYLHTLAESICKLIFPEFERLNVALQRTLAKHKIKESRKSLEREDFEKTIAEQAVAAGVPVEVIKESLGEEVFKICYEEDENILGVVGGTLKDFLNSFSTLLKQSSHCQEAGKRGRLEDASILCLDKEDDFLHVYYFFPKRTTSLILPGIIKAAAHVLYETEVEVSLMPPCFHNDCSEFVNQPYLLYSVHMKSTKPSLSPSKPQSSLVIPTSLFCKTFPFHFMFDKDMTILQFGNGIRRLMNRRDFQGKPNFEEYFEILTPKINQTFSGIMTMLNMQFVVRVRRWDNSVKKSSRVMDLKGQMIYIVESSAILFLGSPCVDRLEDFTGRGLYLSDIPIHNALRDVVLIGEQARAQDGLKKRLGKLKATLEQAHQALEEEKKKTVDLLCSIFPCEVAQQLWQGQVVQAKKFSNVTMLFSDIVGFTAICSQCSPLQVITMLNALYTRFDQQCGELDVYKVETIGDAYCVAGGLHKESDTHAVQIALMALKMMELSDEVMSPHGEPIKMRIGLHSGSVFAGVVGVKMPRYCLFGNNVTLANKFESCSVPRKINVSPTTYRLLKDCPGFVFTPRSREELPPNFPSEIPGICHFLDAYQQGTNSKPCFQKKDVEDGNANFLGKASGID
T1 sequence (Q02153 1-619): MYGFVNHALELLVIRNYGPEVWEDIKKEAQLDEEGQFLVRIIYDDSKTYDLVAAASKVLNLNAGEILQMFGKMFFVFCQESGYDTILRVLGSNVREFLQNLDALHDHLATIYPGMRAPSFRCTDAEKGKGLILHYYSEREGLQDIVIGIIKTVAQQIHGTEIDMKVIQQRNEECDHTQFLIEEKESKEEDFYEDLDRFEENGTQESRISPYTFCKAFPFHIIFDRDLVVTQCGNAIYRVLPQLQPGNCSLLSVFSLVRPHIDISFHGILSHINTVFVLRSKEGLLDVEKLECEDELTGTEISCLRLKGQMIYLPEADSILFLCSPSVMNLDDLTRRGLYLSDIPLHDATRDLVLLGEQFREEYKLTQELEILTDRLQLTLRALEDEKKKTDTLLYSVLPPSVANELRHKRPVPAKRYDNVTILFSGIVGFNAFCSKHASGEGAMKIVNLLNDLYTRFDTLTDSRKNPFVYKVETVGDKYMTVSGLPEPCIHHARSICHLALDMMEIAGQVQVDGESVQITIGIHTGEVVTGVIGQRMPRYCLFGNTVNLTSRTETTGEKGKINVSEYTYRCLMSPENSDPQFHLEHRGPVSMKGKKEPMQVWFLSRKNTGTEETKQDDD
Procedure: Recombinant human soluble guanylate cyclase (sGC) is purified from Sf9 insect cells coinfected with baculoviruses expressing the alpha 1 or beta 1 subunit of sGC, both with a C-terminal histidine tag. Heme-free sGC is prepared by treating cell lysate with a final concentration of 0.5% Tween 20 prior to purification on a nickel affinity column.
sGC catalyzes the conversion of guanosine-5′-triphosphate (GTP) to cyclic guanosine monophosphate (cGMP). The activity of sGC is measured in vitro using the commercially available CisBio cGMP detection kit (catalog # 62GM2PEB) in a 384 well format. In brief, 300 pM heme-free sGC is incubated in reaction buffer (50 mM MOPS pH 6.8, 0.2 N KOH, 50 mM NaCl, 2 mM MgCl2, 0.1% BSA, 1.25 mM IBMX, 0.25 mM TCEP, 50 nM GTP) in the presence or absence of dilutions of test compounds diluted in DMSO (final concentration of 1%) in a volume of 10 microL at 37° C. for 60 min. Undiluted reaction products or an 80-fold dilution of reaction products (10 microL of either) prepared in reaction buffer containing 0.2 mM TCEP and 10 mM EDTA is mixed with 5 microL of d2-cGMP plus 5 microL of Eu^3+ cryptate-labeled anti-cGMP, each diluted in buffer containing 0.1 M KPO4 pH 7.5, 0.4 M KF, 20 mM EDTA, 0.2% BSA. After a one h incubation at room temperature in the dark, the mixtures are quantified on an EnVision plate reader (PerkinElmer) according to manufacturer instructions (laser excitation 337 nm, emission 620 and 665 nm). The ratio at each compound concentration is converted to nM cGMP using the linear portion of a calibration curve. Log compound concentration is plotted against combined undiluted and diluted nM cGMP values to determine the EC50 for each curve.

[3] = pH 4.5, pH 4.5, aqueous buffer, Solubility (pH 4.5), pH 4.5 buffer
[4] = pH 7.4, pH 7.4, aqueous buffer, Solubility (pH 7.4), pH 7.4 buffer

solubility [1, 3] [µg/mL]	solubility [1, 4] [µg/mL]	EC50 [2] [nM]	Solubility (pH 4.5) ([1]; pH 4.5 buffer) [μg/mL]	Solubility (pH 7.4) ([1]; pH 7.4 buffer) [μg/mL]	SMILES
> 60	> 60	63			Cc1cc(CN2CCOCC2)ccc1COc1ccccc1-c1csc(N2CC3CCC(C2)C3C(=O)O)n1 (stereo not drawn) [Compound 43]
0.2 (≈ 0.366 µM)	> 54	2.5			Cc1cc(C(=O)N2CCCCC2)ccc1COc1ccccc1-c1csc(N2CC3CCC(C2)C3C(=O)O)n1 (stereo not drawn) [Compound 67]
0.3 (≈ 0.528 µM)	35 (≈ 61.6 µM)	17			Cc1cc(C(=O)N2CCCCC2)ccc1COc1ccc(Cl)cc1-c1csc(N2CCC(C(=O)O)C(C)C2)n1 (stereo not drawn) [Compound 103]
> 58	> 58	1200			Cc1ccc(OCc2ccc(CN3CCOCC3)cc2C)c(-c2csc(N3CCC(F)(C(=O)O)CC3)n2)c1 [Compound 60]
	> 53	1800	0.1		Cc1cc(C(=O)N2CCCCC2)ccc1COc1ccc(F)cc1-c1csc([C@H]2CC[C@H](C(=O)O)CC2)n1 [Compound 57]
> 55	> 55	520			Cc1cc(CN2CCOCC2)ccc1COc1ccccc1-c1csc(N2CCC(C(=O)O)CC2)n1 [Compound 166]
	> 51	4000	0.1		Cc1cc(C(=O)N2CCCCC2)ccc1COc1ccccc1-c1csc([C@H]2CC[C@H](C(=O)O)CC2)n1 [Compound 12]
15 (≈ 25.4 µM)	> 58	160			Cc1ccc(OCc2ccc(CN3CCOCC3)cc2C)c(-c2csc(N3CCC(C(=O)O)CC3C(F)(F)F)n2)c1 (stereo not drawn) [Compound 132]
33 (≈ 63.3 µM)	36 (≈ 69 µM)	140			Cc1ccc(OCc2ccc(CN3CCOCC3)cc2C)c(-c2csc(N3CCC(C(=O)O)CC3)n2)c1 [Compound 20, 1-{4-[5-methyl-2-(2-methyl-4-morpholin-4-ylmethyl-benzyloxy)-phenyl]-thiazol-2-yl}-piperidine-4-carboxylic acid]
8.9 (≈ 15.6 µM)	> 56	37			Cc1cc(CN2CCS(=O)(=O)CC2)ccc1COc1c(C)cccc1-c1csc(N2CCC(C(=O)O)CC2)n1 [Compound 105]
0.45 (≈ 0.694 µM)	> 64	3100			Cc1cc(CN2CCS(=O)(=O)CC2)ccc1COc1ccc(C#N)cc1-c1csc(N2CCC(C(=O)O)C(C(F)(F)F)C2)n1 (stereo not drawn) [Compound 156]
0.85 (≈ 1.54 µM)	> 100	60			Cc1cc(C(=O)N2CCCCC2)ccc1COc1ccc(F)cc1-c1csc(N2CCC(C(=O)O)C(C)C2)n1 (stereo not drawn) [Compound 1]
> 57	> 57	56			Cc1cc(CN2CCOCC2)ccc1COc1c(-c2csc(N3CCC(C(=O)O)CC3)n2)cccc1C(F)(F)F [Compound 113]
0.45 (≈ 0.823 µM)	> 54	180			Cc1ccc(OCc2ccc(C(=O)N3CCOCC3)cc2C#N)c(-c2csc(N3CCC(C(=O)O)CC3)n2)c1 [Compound 70]
1.8 (≈ 2.99 µM)	> 60	79			N#Cc1cc(CN2CCS(=O)(=O)CC2)ccc1COc1c(Cl)cccc1-c1csc(N2CCC(C(=O)O)CC2)n1 [Compound 140]
		120	17	>51	Cc1ccc(OCc2ccc(C(=O)N3CCCC3)cc2C)c(-c2csc(N3CCC(C(=O)O)CC3)n2)c1 [Compound 13]
	27 (≈ 50.5 µM)	360	0.1		Cc1cc(C(=O)N2CCCCC2)ccc1COc1ccc(F)cc1-c1csc(C2=CCC(C(=O)O)CC2)n1 (stereo not drawn) [Compound 48]
3.5 (≈ 6.26 µM)	5.7 (≈ 10.2 µM)	7100			Cc1cc(CN2CCOCC2)ccc1COc1ccc(C#N)cc1-c1csc(N2CC3CCC(C2)C3C(=O)O)n1 (stereo not drawn) [Compound 86]
	14 (≈ 23.9 µM)	74	0.1		Cc1ccc(OCc2ccc(C(=O)N(C)CC3CCCCC3)cc2C#N)c(-c2csc(N3CCC(C(=O)O)CC3)n2)c1 [Compound 125]
22 (≈ 39.9 µM)	16 (≈ 29 µM)	4400			Cc1cc(CN2CCOCC2)ccc1COc1ccc(F)cc1-c1csc(N2CC3CCC(C2)C3C(=O)O)n1 (stereo not drawn) [Compound 77]
0.15 (≈ 0.255 µM)	> 58	46			Cc1cc(C(=O)N2CCCCC2)ccc1COc1c(-c2csc(N3CCC(C(=O)O)CC3)n2)cccc1C(F)(F)F [Compound 126]
13 (≈ 24.3 µM)	> 53	130			Cc1ccc(OCc2ccc(C(=O)N3CCOCC3)cc2C)c(-c2csc(N3CCC(C(=O)O)CC3)n2)c1 [Compound 49]
14 (≈ 25.2 µM)	21 (≈ 37.8 µM)	180			Cc1cc(CN2CCOCC2)ccc1COc1ccc(Cl)cc1-c1csc(N2CCC(C(=O)O)CC2C)n1 (stereo not drawn) [Compound 84]
	> 51	2300	0.1		Cc1cc(C(=O)N2CCCCC2)ccc1COc1ccccc1-c1csc([C@H]2CC[C@@H](C(=O)O)CC2)n1 [Compound 11]
12 (≈ 21.7 µM)	> 55	3100			Cc1cc(CN2CCS(=O)(=O)CC2)ccc1COc1ccccc1-c1csc(N2CC3C(C2)C3C(=O)O)n1 (stereo not drawn) [Compound 82]
0.3 (≈ 0.51 µM)	> 58	30			Cc1cc(C(=O)N2CCCCC2)ccc1COc1ccccc1-c1csc(N2CCC(C(=O)O)CC2C(F)(F)F)n1 (stereo not drawn) [Compound 130]
0.15 (≈ 0.283 µM)	29 (≈ 54.6 µM)	310			Cc1ccc(OCc2ccc(C(=O)N3CCCCC3)cc2C)c(-c2csc(C3=CCC(C(=O)O)CC3)n2)c1 (stereo not drawn) [Compound 32]
0.45 (≈ 0.755 µM)	> 59	6.1			Cc1ccc(OCc2ccc(CN3CCS(=O)(=O)CC3)cc2C)c(-c2csc(N3CC4CCC(C3)C4C(=O)O)n2)c1 (stereo not drawn) [Compound 136]

SMILES	solubility [1, 3] [µg/mL]	solubility [1, 4] [µg/mL]	EC50 [2] [nM]	Solubility (pH 4.5) ([1]; pH 4.5 buffer) [μg/mL]	Solubility (pH 7.4) ([1]; pH 7.4 buffer) [μg/mL]
Cc1cc(CN2CCOCC2)ccc1COc1ccc(F)cc1-c1csc(N2C3CCC2CC(C(=O)O)C3)n1 (stereo not drawn) [Compound 80]	> 62	> 62	740		
Cc1cc(CN2CCS(=O)(=O)CC2)ccc1COc1ccc(C#N)cc1-c1csc(N2C3CCC2CC(C(=O)O)C3)n1 (stereo not drawn) [Compound 147]	1 (≈ 1.65 µM)	> 60	1200		
